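Five concentrations, 48 hours, 96-well plates. The concentration for 50% growth inhibition is given as GI50.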 Active and inactive are the calls of the source. No stated cut-off is given here; in the data, active = GI50 up to about 1.1 µM and inactive = higher.
What was measured:
Experiment in all cases: DTP human tumour cell line panel, 48 h
A549 = test system: A549
Hs-578T = test system: Hs-578T
MDA-MB-435 = test system: MDA-MB-435
NCI-H23 = test system: NCI-H23
SK-MEL-2 = test system: SK-MEL-2
HCC 2998 = test system: HCC 2998
MDA-MB-231 = test system: MDA-MB-231
BT-549 = test system: BT-549
OVCAR-3 = test system: OVCAR-3
SW-620 = test system: SW-620
M14 = test system: M14
UO-31 = test system: UO-31
HCT-116 = test system: HCT-116
EKVX = test system: EKVX
CAKI-1 = test system: CAKI-1
SF-268 = test system: SF-268
OVCAR-8 = test system: OVCAR-8
SNB-75 = test system: SNB-75
MDA-N = test system: MDA-N

CCCCCCCCCC[C@@H](O)[C@H]1CC[C@H]([C@H]2CC[C@H]([C@H](O)CCCCCCCCCC[C@@H]3CC(CC(C)=O)C(=O)O3)O2)O1 (stereo partly drawn)
GI50 (A549): 9.93 µM (inactive) | GI50 (Hs-578T): 7.19 µM (inactive) | GI50 (MDA-MB-435): > 39.1 µM (inactive) | GI50 (NCI-H23): 1.7 µM (inactive) | GI50 (SK-MEL-2): > 40.9 µM (inactive) | GI50 (HCC 2998): 41.3 µM (inactive) | GI50 (MDA-MB-231): > 50 µM (inactive) | GI50 (BT-549): 46.2 µM (inactive) | GI50 (OVCAR-3): 15.1 µM (inactive) | GI50 (SW-620): 26.2 µM (inactive) | GI50 (M14): 26.3 µM (inactive) | GI50 (UO-31): 23.7 µM (inactive) | GI50 (HCT-116): 0.112 µM (active) | GI50 (EKVX): 7.43 µM (inactive) | GI50 (CAKI-1): > 47.1 µM (inactive) | GI50 (SF-268): > 50 µM (inactive) | GI50 (OVCAR-8): 7.66 µM (inactive) | GI50 (SNB-75): > 50 µM (inactive)

NNC(=O)c1ccc(-n2nnc(C(=O)NN)c2C(=O)NN)cc1
GI50 (A549): > 100 µM (inactive) | GI50 (MDA-MB-435): > 100 µM (inactive) | GI50 (NCI-H23): > 100 µM (inactive) | GI50 (SK-MEL-2): > 100 µM (inactive) | GI50 (HCC 2998): > 100 µM (inactive) | GI50 (MDA-MB-231): > 100 µM (inactive) | GI50 (BT-549): > 100 µM (inactive) | GI50 (MDA-N): > 100 µM (inactive) | GI50 (OVCAR-3): > 100 µM (inactive) | GI50 (M14): > 100 µM (inactive) | GI50 (UO-31): > 100 µM (inactive) | GI50 (HCT-116): > 100 µM (inactive) | GI50 (EKVX): > 100 µM (inactive) | GI50 (CAKI-1): > 100 µM (inactive) | GI50 (OVCAR-8): > 100 µM (inactive)

O=C1Cc2c([nH]c3c(Cl)cccc23)-c2ccccc2N1
GI50 (A549): > 100 µM (inactive) | GI50 (Hs-578T): 87.3 µM (inactive) | GI50 (MDA-MB-435): > 100 µM (inactive) | GI50 (NCI-H23): > 100 µM (inactive) | GI50 (MDA-MB-231): > 100 µM (inactive) | GI50 (BT-549): > 100 µM (inactive) | GI50 (MDA-N): > 100 µM (inactive) | GI50 (OVCAR-3): > 100 µM (inactive) | GI50 (SW-620): > 100 µM (inactive) | GI50 (M14): > 100 µM (inactive) | GI50 (UO-31): > 100 µM (inactive) | GI50 (HCT-116): > 100 µM (inactive) | GI50 (SF-268): > 100 µM (inactive) | GI50 (OVCAR-8): > 100 µM (inactive) | GI50 (SNB-75): > 100 µM (inactive)

Nc1nc2c(ncn2Cc2ccccc2CO)c(=O)[nH]1
GI50 (A549): > 100 µM (inactive) | GI50 (Hs-578T): > 100 µM (inactive) | GI50 (MDA-MB-435): > 100 µM (inactive) | GI50 (NCI-H23): > 100 µM (inactive) | GI50 (SK-MEL-2): > 100 µM (inactive) | GI50 (HCC 2998): > 100 µM (inactive) | GI50 (MDA-MB-231): > 100 µM (inactive) | GI50 (BT-549): > 100 µM (inactive) | GI50 (OVCAR-3): > 100 µM (inactive) | GI50 (SW-620): > 100 µM (inactive) | GI50 (M14): > 100 µM (inactive) | GI50 (UO-31): > 100 µM (inactive) | GI50 (HCT-116): > 100 µM (inactive) | GI50 (EKVX): > 100 µM (inactive) | GI50 (CAKI-1): > 100 µM (inactive) | GI50 (SF-268): > 100 µM (inactive) | GI50 (OVCAR-8): > 100 µM (inactive) | GI50 (SNB-75): > 100 µM (inactive)

CN(C)CCCN1c2ccccc2Sc2cnccc21
GI50 (A549): > 100 µM (inactive) | GI50 (Hs-578T): > 100 µM (inactive) | GI50 (MDA-MB-435): 69.7 µM (inactive) | GI50 (SK-MEL-2): 28.4 µM (inactive) | GI50 (MDA-MB-231): 42.1 µM (inactive) | GI50 (BT-549): > 100 µM (inactive) | GI50 (MDA-N): 64.7 µM (inactive) | GI50 (OVCAR-3): 34 µM (inactive) | GI50 (SW-620): > 100 µM (inactive) | GI50 (M14): 52.2 µM (inactive) | GI50 (UO-31): > 100 µM (inactive) | GI50 (HCT-116): 43.7 µM (inactive) | GI50 (EKVX): > 100 µM (inactive) | GI50 (CAKI-1): 63.1 µM (inactive) | GI50 (SF-268): > 100 µM (inactive) | GI50 (OVCAR-8): > 100 µM (inactive) | GI50 (SNB-75): > 100 µM (inactive)

Cc1ccc(S(=O)(=O)NC(=O)NC(CC(=O)O)C(=O)O)cc1 (stereo not drawn)
GI50 (A549): > 100 µM (inactive) | GI50 (Hs-578T): > 100 µM (inactive) | GI50 (NCI-H23): > 100 µM (inactive) | GI50 (SK-MEL-2): > 100 µM (inactive) | GI50 (MDA-MB-231): > 100 µM (inactive) | GI50 (BT-549): > 100 µM (inactive) | GI50 (MDA-N): > 100 µM (inactive) | GI50 (SW-620): > 100 µM (inactive) | GI50 (M14): > 100 µM (inactive) | GI50 (UO-31): > 100 µM (inactive) | GI50 (HCT-116): > 100 µM (inactive) | GI50 (SF-268): > 100 µM (inactive) | GI50 (OVCAR-8): > 100 µM (inactive) | GI50 (SNB-75): > 100 µM (inactive)

Cc1ccc2c(ccc3[nH]cc(CNc4ccc(NS(C)(=O)=O)cc4)c32)n1
GI50 (A549): 23.1 µM (inactive) | GI50 (Hs-578T): 27.4 µM (inactive) | GI50 (MDA-MB-435): 16.8 µM (inactive) | GI50 (NCI-H23): 18.7 µM (inactive) | GI50 (SK-MEL-2): 18.6 µM (inactive) | GI50 (MDA-MB-231): 25.3 µM (inactive) | GI50 (BT-549): 35.4 µM (inactive) | GI50 (MDA-N): 17.5 µM (inactive) | GI50 (OVCAR-3): 19.7 µM (inactive) | GI50 (SW-620): 31.2 µM (inactive) | GI50 (M14): 17.6 µM (inactive) | GI50 (UO-31): 37.7 µM (inactive) | GI50 (HCT-116): 18.7 µM (inactive) | GI50 (EKVX): 35.4 µM (inactive) | GI50 (CAKI-1): 14 µM (inactive) | GI50 (SF-268): 23 µM (inactive) | GI50 (OVCAR-8): 25.7 µM (inactive) | GI50 (SNB-75): 18.8 µM (inactive)

O=[N+]([O-])c1cc2c([N+](=O)[O-])cccc2o1
GI50 (A549): 30.1 µM (inactive) | GI50 (Hs-578T): 13.1 µM (inactive) | GI50 (MDA-MB-435): 18 µM (inactive) | GI50 (NCI-H23): 15.8 µM (inactive) | GI50 (SK-MEL-2): 9.16 µM (inactive) | GI50 (HCC 2998): 17.6 µM (inactive) | GI50 (MDA-MB-231): 12.3 µM (inactive) | GI50 (BT-549): 15.7 µM (inactive) | GI50 (MDA-N): 7.93 µM (inactive) | GI50 (OVCAR-3): 5.01 µM (inactive) | GI50 (SW-620): 2.86 µM (inactive) | GI50 (M14): 10.2 µM (inactive) | GI50 (UO-31): 1.88 µM (inactive) | GI50 (HCT-116): 2.72 µM (inactive) | GI50 (EKVX): 2.56 µM (inactive) | GI50 (CAKI-1): 2.22 µM (inactive) | GI50 (SF-268): 15.7 µM (inactive) | GI50 (OVCAR-8): 17 µM (inactive)
